Test results reported in US20080305097A1, “Use of Protease or a Protease Inhibitor for the Manufacture of Medicaments” (YEDA RESEARCH AND DEVELOPMENT CO., LTD., priority 2004, published 2008).

Experiments:
osteoclast = assay: In vivo osteoclast activation by SDF-1 or HGF, TRAP staining; parameters: species or system Balb/c mice; conditions: subcutaneously five consecutive days, 10 mcg SDF-1 or 1.5 mcg HGF
Protocol: (§1) We carried out the following experiment to verify in vivo our hypothesis that SDF-1 induces osteoclast activation and hematopoietic progenitor cell (HPC) mobilization. Balb/c mice were injected subcutaneously for five consecutive days with 10 mcg SDF-1 or 1.5 mcg HGF or both, and osteoclast activation (measured by TRAP+ staining as in Example 1) and mobilization to the peripheral blood, (assayed in semi solid culture as in Example 1) was determined.

SDF-1 [1] = assay: SDF-1 transcription (RT-PCR) and secretion (ELISA) in primary calvaria osteoblasts; assay type: cell-based, mouse; conditions: 50 ng/ml, 3 days
Protocol: Osteoblast were incubated with G-CSF, HGF or remained untreated, and SDF-1 transcription and expression was determined in such cells (FIG. 9).
Primary calvaria osteoblasts were cultured for 3 days in the presence of SDF-1 (PeproTech, 100 […]), HGF (PeproTech, 50 ng/ml) and G-CSF (Filgrastin, Roche, 50 ng/ml). Conditioned media was collected to determine SDF-1 concentration by ELISA, as described in Example 2. Determination of SDF-1 transcription and expression as in Example 2.

[2] = test system: hematopoietic progenitor cell (HPC); assay: In vivo progenitor mobilization by SDF-1 or HGF, semi solid culture; parameters: species or system Balb/c mice; conditions: subcutaneously five consecutive days, 10 mcg SDF-1 or 1.5 mcg HGF
Protocol: as §1
(§2) In order to detect the levels of mouse progenitors in the blood circulation, semisolid cultures were performed as previously described (Petit, Nat Immunol, 2002). In brief, mouse BM cells (3×10^5 cells/ml) were plated in 0.9% methylcellulose (Sigma), 30% FCS, 5×10^−5M 2ME, 50 ng/ml SCF, 5 ng/ml IL-3, 5 ng/ml GM-CSF (R&D), and 2 u/ml erythropoietin (Orto Bio Tech, Don Mills, Canada). The cultures were incubated at 37° C. in a humidified atmosphere containing 5% CO2 and scored 7 days later by inverted microscopy by morphologic criteria.

[3] = test system: TRAP+ multinucleated osteoclasts; assay: Osteoblast/BM co-culture, TRAP+ multinucleated osteoclast count; assay type: cell-based, mouse; conditions: G-CSF 50 ng/ml, HGF 50 ng/ml, SDF-1 10 and 100 ng/ml; 5 days
Protocol: Osteoclast precursors are stimulated by cell-cell contact with osteoblasts to become activated multinucleated TRAP+ bone resorbing cells. To obtain active osteoclasts in vitro, a clvarian osteoblasts are incubated with Vitamine D3 and PG2E which potentiate their M-CSF production and RANKL expression, needed for osteoclast activation. BM cells which contain osteoclast precursors are seeded then on the osteoblast monolayer, for 5 days, to obtain active multinucleated osteoclasts.
A co-culture of primary mouse osteoblasts and BM (containing ocl precursors as detailed above) was seeded in the presence of G-CSF (50 ng/ml), HGF (50 ng/ml), or SDF-1 (10 and 100 ng/ml). Five days later, TRAP+ multinucleated osteoclasts in the cultures were stained (as described in Example 1) and counted 5 days later.

TRAP+ osteoclasts = assay: TRAP staining of activated osteoclasts in BM after LPS; assay type: in vivo, Balb/c mice; conditions: LPS 250 μg/mouse single injection, 5 days later
Protocol: LPS (Sigma) was administered to Balb/c mice in a single subcutaneous injection of 250 μg/mouse, and saline was injected instead of LPS in control groups. 5 days following LPS administration, mice were sacrificed, bones were fixed, decalcified, paraffin embedded and sectioned, BM harvested, and the level of TRAP+ osteoclast (activated osteoclast) monitored.
In this assay substrate is exogeneously provided to measure intrinsic activity of the tissue TRAP in the BM of LPS treated mice (FIGS. 1A and B).

progenitors = assay: CFU assay of progenitors in peripheral blood after LPS; assay type: in vivo, Balb/c mice
Protocol: Mice were administered for 5 days with LPS (as described in Example 1) and progenitor increase in peripheral blood (PB) was measured (as in Example 9).
as §2

CXCR4 = CXCR4 expression in BM and PB by flow cytometry after LPS; assay type: in vivo, Balb/c mice; conditions: both BM and PB, 16 hours post LPS
Protocol: We monitored CXCR4 expression in BM and PB of LPS treated mice, 16 hours post LPS administration, and in control non treated mice.

HGF = assay: Semi quantitative RT-PCR of BM after LPS: HGF; assay type: in vivo, mouse; conditions: LPS treated mice, 5 days
Protocol: (§3) One femur of each mouse was flushed with Trireagent for RNA extraction. 1 ug RNA was used for the preparation of cDNA. Semi quantitative RT-PCR was used to measure the transcription of mouse SDF-1, HGF and CTK. The following primers were used: SDF-1 (Ponomaryov, 2000, J. Clin. Invest. 106:1331): left primer (SEQ ID NO: 1) 5′-[…]-3′, right primer (SEQ ID NO: 2) 5′-[…]-3′. HGF (Weinstein, 2001, Moll Cell boil, 21(15):5122): left primer (SEQ ID NO: 3) 5′-[…]-3′, right primer (SEQ ID NO: 4) 5′-[…]-3′. CTK: left primer (SEQ ID NO: 5) 5′-[…]-3′, right primer (SEQ ID NO: 6) 5′-[…]-3′.

SDF-1 [4] = assay: SDF-1 concentration in bone marrow by ELISA after LPS; assay type: in vivo, Balb/c mice
Protocol: Mice were administered for 5 days with LPS as described in example 1 and SDF-1 concentration in bone marrow was monitored (by ELISA as described by Petit et al 2002).
(§4) In order to verify that the progenitor increase detected in PB in the LPS treated mice, results from the egress or mobilization of cells from the bone marrow, mononuclear cells (MNC) were monitored in the BM and in PB by counting numbers of ficolled WBC (leukocytes), using hemacytometer shortly after LPS treatment (16 hours post LPS treatment) and in BM and PB of non treated mice (FIG. 3).

mononuclear cells (MNC) = assay: Mononuclear cell counts in BM and PB by hemacytometer after LPS; assay type: in vivo, Balb/c mice; conditions: 16 hours post LPS, versus non treated mice
Protocol: as §4

SDF-1 [5] = assay: Semi quantitative RT-PCR of BM after LPS: SDF-1; assay type: in vivo, mouse; conditions: LPS treated mice, 5 days
Protocol: as §3

CTK = assay: Semi quantitative RT-PCR of BM after LPS: CTK; assay type: in vivo, mouse; conditions: LPS treated mice, 5 days
Protocol: as §3

Substance | osteoclast activation in vivo (osteoclast) | SDF-1 transcription in osteoblasts (SDF-1 [1]) | SDF-1 production in osteoblasts (SDF-1 [1]; conditioned media ELISA) | mobilization of progenitors in vivo [2] | level of activated TRAP+ osteoclasts [3] | TRAP+ osteoclasts in the BM (TRAP+ osteoclasts) | progenitor mobilization (progenitors; 16 hours post LPS) | level of progenitors in PB, higher than control non-treated mice (progenitors; 5 days LPS) | progenitor colonies in PB (progenitors; 5 days LPS) | level of CXCR4 expression (CXCR4) | HGF transcription in the BM (HGF) | decrease in BM SDF-1 concentration (SDF-1 [4]; 16 hours post LPS, versus non treated mice) | BM SDF-1 concentration (SDF-1 [4]; 5 days LPS) [ng/mg protein] | decrease in BM SDF-1 concentration (SDF-1 [4]; 5 days LPS, versus non-treated control) | decrease of MNC cells in the BM (mononuclear cells (MNC)) | increase of MNC cells in the PB (mononuclear cells (MNC)) | SDF-1 transcription in the BM (SDF-1 [5]) | CTK transcription in the BM (CTK)
HGF: hepatocyte growth factor (PeproTech) | induced | induce | induce | induced | significantly increased | – | – | – | – | – | – | – | – | – | – | – | – | –
lipopolysaccharide [LPS] | – | – | – | – | – | dramatic increase in TRAP+ osteoclasts | significant increase in progenitor mobilization | about 95% | about 100 colonies per 5×10^5 seeded cells | significant increase | dramatic increase | about 55% | 0.4 | about 66% | about 53% | about 78% | decrease | dramatic increase
